{
  "source": "ChEMBL document CHEMBL1150112",
  "about": "“Enhancement of contraction of rat mesenteric artery by acteoside: role of endothelial nitric oxide” (J Nat Prod, 2002)",
  "key": {"[1]": {"tested_on": "Mesenteric artery", "assay": "Potentiation of phenylepinephrine-induced contraction in endothelium-intact Sprague-Dawley rat mesenteric artery after 30 mins", "format": "functional"}, "[2]": {"tested_on": "Artery", "assay": "Attenuation of forskolin-induced vasorelaxation in endothelium-denuded Sprague-Dawley rat mesenteric artery at 30 umol/L", "format": "functional, tissue-based"}, "[3]": {"tested_on": "Mesenteric artery", "assay": "Potentiation of phenylepinephrine-induced vessel tension in endothelium-intact Sprague-Dawley rat mesenteric artery at 30 umol/L in presence of pretreated indomethacin", "format": "functional, tissue-based"}, "[4]": {"tested_on": "Mesenteric artery", "assay": "Potentiation of phenylepinephrine-induced contraction in endothelium-denuded Sprague-Dawley rat mesenteric artery at 30 umol/L after 30 mins", "format": "functional, tissue-based"}, "[5]": {"tested_on": "Artery", "assay": "Change in NS 1619-induced vasorelaxation in endothelium-denuded Sprague-Dawley rat mesenteric artery at 30 umol/L", "format": "functional, tissue-based"}, "[6]": {"tested_on": "Mesenteric artery", "assay": "Enhancement of phenylepinephrine-induced contraction in endothelium-intact Sprague-Dawley rat mesenteric artery at 30 umol/L after 30 mins in presence of co-treated 1H-[1,2,4]oxadiazolo[…]quinoxalin-1-one", "format": "functional, tissue-based"}, "[7]": {"tested_on": "Artery", "assay": "Change in hydroxylamine-induced vasorelaxation in endothelium-denuded Sprague-Dawley rat mesenteric artery at 30 umol/L after 30 mins", "format": "functional, tissue-based"}, "[8]": {"tested_on": "Mesenteric artery", "assay": "Potentiation of phenylepinephrine-induced contraction in endothelium-intact Sprague-Dawley rat mesenteric artery at 30 umol/L after 30 mins", "format": "functional, tissue-based"}, "[9]": {"tested_on": "Mesenteric artery", "assay": "Potentiation of phenylepinephrine-induced contraction in endothelium-intact Sprague-Dawley rat mesenteric artery at 30 umol/L after 30 mins in presence of NG-nitro-L-arginine", "format": "functional, tissue-based"}, "[10]": {"tested_on": "Mesenteric artery", "assay": "Potentiation of phenylepinephrine-induced contraction in endothelium-intact Sprague-Dawley rat mesenteric artery at 100 to 300 umol/L after 30 mins", "format": "functional, tissue-based"}, "[11]": {"tested_on": "Artery", "assay": "Change in sodium nitroprusside-induced vasorelaxation in endothelium-denuded Sprague-Dawley rat mesenteric artery at 30 umol/L after 30 mins", "format": "functional, tissue-based"}, "[12]": {"assay": "Vasorelaxant activity in endothelium-intact Sprague-Dawley rat vascular smooth muscle at > 100 umol/L", "format": "functional"}, "[13]": {"tested_on": "Mesenteric artery", "assay": "Increase in phenylepinephrine-induced vessel tension in endothelium-intact Sprague-Dawley rat mesenteric artery at 30 umol/L in presence of tetraethylammonium", "format": "functional, tissue-based"}, "[14]": {"tested_on": "Artery", "assay": "Attenuation of acetylcholine-induced vasorelaxation in endothelium-intact Sprague-Dawley rat mesenteric artery at 30 umol/L after 30 mins", "format": "functional, tissue-based"}, "[15]": {"tested_on": "Mesenteric artery", "assay": "Potentiation of phenylepinephrine-induced contraction in endothelium-intact Sprague-Dawley rat mesenteric artery at 30 umol/L after 30 mins in presence of NG-nitro-L-arginine methyl ester", "format": "functional, tissue-based"}},
  "note": "Active and inactive are the calls of the source. The calls are words filed in the database; no cut-off is given here.",
  "data": [
    {"compound": "C[C@@H]1O[C@@H](O[C@@H]2[C@@H](O)[C@H](OCCc3ccc(O)c(O)c3)O[C@H](CO)[C@H]2OC(=O)/C=C/c2ccc(O)c(O)c2)[C@H](O)[C@H](O)[C@H]1O", "values": [
      {"measurement": "Activity", "setting": "[1]", "value": "Dose-dependent effect"},
      {"measurement": "Activity", "setting": "[2]", "value": "inactive"},
      {"measurement": "Activity", "setting": "[3]", "value": "Active"},
      {"measurement": "Activity", "setting": "[4]", "value": "inactive"},
      {"measurement": "Activity", "setting": "[5]", "value": "inactive"},
      {"measurement": "Activity", "setting": "[6]", "value": "inactive"},
      {"measurement": "Activity", "setting": "[7]", "value": "inactive"},
      {"measurement": "Activity", "setting": "[8]", "value": "Active"},
      {"measurement": "Activity", "setting": "[9]", "value": "inactive"},
      {"measurement": "Activity", "setting": "[10]", "value": "inactive"},
      {"measurement": "Activity", "setting": "[11]", "value": "inactive"},
      {"measurement": "Activity", "setting": "[12]", "value": "Active"},
      {"measurement": "Activity", "setting": "[13]", "value": "inactive"},
      {"measurement": "Activity", "setting": "[14]", "value": "Active"},
      {"measurement": "Activity", "setting": "[15]", "value": "inactive"}
    ]}
  ]
}
